Source: ChEMBL document CHEMBL3576867, “Cytotoxic activity of rearranged drimane meroterpenoids against colon cancer cells via down-regulation of β-catenin expression” (J Nat Prod, 2015)
The source made the active and inactive calls. The calls are words filed in the database; no cut-off is given here.

What was measured:
SW480 [1] = experiment: Cytotoxicity against human SW480 cells assessed as growth inhibition at >20 uM after 48 hrs by Cell-Titer-Glo assay in presence of 5-epi-nakijinone; format: functional, cell-based
HEK293 [2] = experiment: Inhibition of Wnt/beta-catenin pathway in HEK293 cells assessed as downregulation of Wnt3a-CM-activated beta-catenin expression at 1.5 to 6 uM after 15 hrs by Western blot analysis; format: cell-based; details: Homo sapiens
HEK293 [3] = experiment: Inhibition of Wnt/beta-catenin pathway in HEK293 cells assessed as decrease in Wnt3a-CM-induced beta-catenin response regulated transcription level at 10 to 40 uM after 15 hrs by TOPflash reporter gene assay in presence of 5-epi-nakijinone; format: cell-based; details: Homo sapiens
HCT-116 [4] = experiment: Cytotoxicity against human HCT116 cells assessed as growth inhibition at >20 uM after 48 hrs by Cell-Titer-Glo assay in presence of 5-epi-nakijinone; format: functional, cell-based
HEK293 [5] = experiment: Inhibition of Wnt/beta-catenin pathway in HEK293 cells assessed as downregulation of Wnt3a-CM-activated beta-catenin expression at 10 to 40 uM after 15 hrs by Western blot analysis; format: cell-based; details: Homo sapiens
SW480 [6] = experiment: Cytotoxicity against human SW480 cells assessed as growth inhibition at >20 uM after 48 hrs by Cell-Titer-Glo assay; format: functional, cell-based
HCT-116 [7] = experiment: Cytotoxicity against human HCT116 cells assessed as growth inhibition at >20 uM after 48 hrs by Cell-Titer-Glo assay; format: functional, cell-based
HEK293 [8] = experiment: Inhibition of Wnt/beta-catenin pathway in HEK293 cells assessed as decrease in Wnt3a-CM-induced beta-catenin response regulated transcription level at 10 to 40 uM after 15 hrs by TOPflash reporter gene assay; format: cell-based; details: Homo sapiens
HEK293 [9] = experiment: Inhibition of Wnt/beta-catenin pathway in HEK293 cells assessed as downregulation of Wnt3a-CM-activated beta-catenin expression at 10 to 40 uM after 15 hrs by Western blot analysis in presence of 5-epi-nakijinone; format: cell-based; details: Homo sapiens
HEK293 [10] = experiment: Inhibition of Wnt/beta-catenin pathway in HEK293 cells assessed as decrease in Wnt3a-CM-induced beta-catenin response regulated transcription level at 1.5 to 6 uM after 15 hrs by TOPflash reporter gene assay; format: cell-based; details: Homo sapiens
SW480 [11] = experiment: Cytotoxicity against human SW480 cells assessed as growth inhibition after 48 hrs by Cell-Titer-Glo assay; format: functional, cell-based; details: SW480, 48 h
HCT-116 [12] = experiment: Cytotoxicity against human HCT116 cells assessed as growth inhibition after 48 hrs by Cell-Titer-Glo assay; format: functional, cell-based; details: HCT-116, 48 h

Structure (SMILES): C=C1CCC[C@H]2[C@](C)(CC3=C4OC(C)(C)N=C4C=C(OC)C3=O)[C@@H](C)CC[C@]12C
- growth inhibition (GI) (SW480 [1]): Active
- inhibition (HEK293 [2]): Active
- inhibition (HEK293 [3]): Active
- growth inhibition (GI) (HCT-116 [4]): Active

Structure (SMILES): C=C1CCC[C@H]2[C@](C)(Cc3c(O)c(OC)cc4nc(C)oc34)[C@@H](C)CC[C@@]12C
- inhibition (HEK293 [5]): Active
- growth inhibition (GI) (SW480 [6]): Active
- growth inhibition (GI) (HCT-116 [7]): Active
- inhibition (HEK293 [8]): Active

Structure (SMILES): C=C1CCC[C@H]2[C@](C)(CC3=C(O)C(=O)C=C(OCC)C3=O)[C@@H](C)CC[C@@]12C
- inhibition (HEK293 [9]): Active
- inhibition (HEK293 [10]): Active
- IC50 (SW480 [11]): 3.24 µM
- IC50 (HCT-116 [12]): 2.95 µM
